Data from patent US20240124460A1, “METHODS AND COMPOSITIONS FOR TARGETED PROTEIN DEGRADATION” (Ranok Therapeutics (Hangzhou) Co. Ltd., priority 2020, published 2024).
pEC50, pIC50: −log10 of the molar value. One block for each compound: values may come before it.

Legend:
[1] = tested on: MV-4-11 human acute myeloid leukemia; assay: MV-4-11 CCK-8 proliferation assay; format: cell-based; conditions: Homo sapiens, MV4-11; MV-4-11 cells, 72 hr
Outline: (§1)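 CCK-8 absorbance read-out, with inhibition expressed against DMSO-treated cells after subtracting a cell-free DMSO medium blank. Compounds tested over a 3-fold dilution series spanning 20 μM to 1.02 nM; lines grown essentially as ATCC recommends.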

HSP90α protein = biological target: T1, HSP90α protein (Homo sapiens, UniProt P07900); assay: HSP90α-binding FP (BODIPY) assay; conditions: FP competition with BODIPY-labeled RNK04010
T1 construct: purchased BPS Bioscience #50298
Method: Binding of test compounds to HSP90α protein was measured by fluorescent polarization (FP) using the HSP90α (N-terminal) Assay Kit (BPS Bioscience, #50298), following the manufacturer's instructions, except as noted. Fluorescently labeled HSP90-binding compounds, either the provided FITC-geldanamycin (5 nM final concentration) or RNK04010, a triazolone-based HSP90 binding small molecule labeled with BODIPY through a piperazine-phenyl linker (5 nM final concentration) were employed. A 2.5-fold serial dilution of each test compound ranging from 20 μM to 5.2 nM was assayed for binding to HSP90α. After the final step of adding HSP90α protein to each assay well, plates were mixed by brief shaking, incubated at 25° C. for 120 min for FITC-geldanamycin or 300 min for RNK04010, and fluorescence was measured using a PerkinElmer EnVision Plate Reader.

[2] = tested on: U-87 MG human glioblastoma; assay: U87 MG CCK-8 proliferation assay; format: cell-based; conditions: Homo sapiens, U-87 MG, 72 h, U-87 MG cells, read-out: U87MG CCK-8
Outline: as §1

SMILES: CCOc1cc(N2CCC(C(=O)NCc3ccc(-n4c(O)nnc4-c4cc(CC)c(O)cc4O)cc3)CC2)ccc1Nc1ncc2c(n1)N(S(C)(=O)=O)c1ccccc1C(=O)N2C [Compound 071, 1-(3-ethoxy-4-((5-methyl-11-(methylsulfonyl)-6-oxo-6,11-dihydro-5H-benzo[e]pyrimido[5,4-b][1,4]diazepin-2-yl)amino)phenyl)-N-(4-(3-(5-ethyl-2,4-dihydroxyphenyl)-5-hydroxy-4H-1,2,4-triazol-4-yl)benzyl)piperidine-4-carboxamide]
pEC50 [1]: 6.00 to 7.00
pIC50 (HSP90α protein): 6.00 to 7.00
pEC50 [2]: < 6.00

SMILES: CCOc1cc(N2CCC(C(=O)N[C@H](C)c3ccc(CN4CCC(Cc5ccc(-n6c(O)nnc6-c6cc(C(C)C)c(O)cc6O)cc5)CC4)cc3)CC2)ccc1Nc1ncc2c(n1)N(S(C)(=O)=O)c1ccccc1C(=O)N2C [Compound 077, (R)—N-(1-(4-((4-(4-(3-(2,4-dihydroxy-5-isopropylphenyl)-5-hydroxy-4H-1,2,4-triazol-4-yl)benzyl)piperidin-1-yl)methyl)phenyl)ethyl)-1-(3-ethoxy-4-((5-methyl-11-(methylsulfonyl)-6-oxo-6,11-dihydro-5H-benzo[e]pyrimido[5,4-b][1,4]diazepin-2-yl)amino)phenyl)piperidine-4-carboxamide]
pEC50 [1]: > 7.00
pIC50 (HSP90α protein): 6.00 to 7.00
pEC50 [2]: 6.00 to 7.00

SMILES: CCOc1cc(N2CCC(C(=O)NCc3ccc(-n4c(O)nnc4-c4cc(C(C)C)c(O)cc4O)cc3)CC2)ccc1Nc1ncc2c(n1)N(S(C)(=O)=O)c1ccccc1C(=O)N2C [Compound 080, N-(4-(3-(2,4-dihydroxy-5-isopropylphenyl)-5-hydroxy-4H-1,2,4-triazol-4-yl)benzyl)-1-(3-ethoxy-4-((5-methyl-11-(methylsulfonyl)-6-oxo-6,11-dihydro-5H-benzo[e]pyrimido[5,4-b][1,4]diazepin-2-yl)amino)phenyl)piperidine-4-carboxamide]
pEC50 [1]: > 7.00
pIC50 (HSP90α protein): 6.00 to 7.00
pEC50 [2]: < 6.00

SMILES: CCOc1cc(N2CCC(C(=O)N3CCC(CN4CCN(Cc5ccc(-n6c(C(=O)NCC(F)(F)F)nnc6-c6cc(C)c(O)cc6O)cc5)CC4)CC3)CC2)ccc1Nc1ncc2c(n1)N(S(C)(=O)=O)c1ccccc1C(=O)N2C [Compound 081, 5-(2,4-dihydroxy-5-methylphenyl)-4-(4-((4-((1-(1-(3-ethoxy-4-((5-methyl-11-(methylsulfonyl)-6-oxo-6,11-dihydro-5H-benzo[e]pyrimido[5,4-b][1,4]diazepin-2-yl)amino)phenyl)piperidine-4-carbonyl)piperidin-4-yl)methyl)piperazin-1-yl)methyl)phenyl)-N-(2,2,2-trifluoroethyl)-4H-1,2,4-triazole-3-carboxamide]
pEC50 [1]: > 7.00
pIC50 (HSP90α protein): > 7.00
pEC50 [2]: 6.00 to 7.00

SMILES: CCOc1cc(N2CCC(C(=O)N3CCC(CN4CCN(Cc5ccc(-n6c(O)nnc6-c6cc(CC)c(O)cc6O)cc5F)CC4)CC3)CC2)ccc1Nc1ncc2c(n1)N(S(C)(=O)=O)c1ccccc1C(=O)N2C [Compound 082, 2-((2-ethoxy-4-(4-(4-((4-(4-(3-(5-ethyl-2,4-dihydroxyphenyl)-5-hydroxy-4H-1,2,4-triazol-4-yl)-2-fluorobenzyl)piperazin-1-yl)methyl)piperidine-1-carbonyl)piperidin-1-yl)phenyl)amino)-5-methyl-11-(methylsulfonyl)-5,11-dihydro-6H-benzo[e]pyrimido[5,4-b][1,4]diazepin-6-one]
pEC50 [1]: > 7.00
pIC50 (HSP90α protein): > 7.00
pEC50 [2]: > 7.00

SMILES: CCOc1cc(N2CCC(C(=O)N3CCC(CN4CCN(Cc5ccc(-n6c(C(=O)NC(CC)CC)nnc6-c6cc(CC)c(O)cc6O)cc5)CC4)CC3)CC2)ccc1Nc1ncc2c(n1)N(S(C)(=O)=O)c1ccccc1C(=O)N2C [Compound 084, 4-(4-((4-((1-(1-(3-ethoxy-4-((5-methyl-11-(methylsulfonyl)-6-oxo-6,11-dihydro-5H-benzo[e]pyrimido[5,4-b][1,4]diazepin-2-yl)amino)phenyl)piperidine-4-carbonyl)piperidin-4-yl)methyl)piperazin-1-yl)methyl)phenyl)-5-(5-ethyl-2,4-dihydroxyphenyl)-N-(pentan-3-yl)-4H-1,2,4-triazole-3-carboxamide]
pEC50 [1]: > 7.00
pIC50 (HSP90α protein): 6.00 to 7.00
pEC50 [2]: 6.00 to 7.00

SMILES: CCOc1cc(N2CCC(C(=O)N3CCN(Cc4ccc(-n5c(O)nnc5-c5cc(C)c(O)cc5O)cc4)CC3)CC2)ccc1Nc1ncc2c(n1)N(S(C)(=O)=O)c1ccccc1C(=O)N2C [Compound 085, 2-((4-(4-(4-(4-(3-(2,4-dihydroxy-5-methylphenyl)-5-hydroxy-4H-1,2,4-triazol-4-yl)benzyl)piperazine-1-carbonyl)piperidin-1-yl)-2-ethoxyphenyl)amino)-5-methyl-11-(methylsulfonyl)-5,11-dihydro-6H-benzo[e]pyrimido[5,4-b][1,4]diazepin-6-one]
pEC50 [1]: > 7.00
pIC50 (HSP90α protein): 6.00 to 7.00
pEC50 [2]: 6.00 to 7.00

More lines, now with the values ahead:

pEC50 [1]: > 7.00
pIC50 (HSP90α protein): 6.00 to 7.00
pEC50 [2]: 6.00 to 7.00
SMILES: CCOc1cc(N2CCC(C(=O)N3CCN(Cc4ccc(-n5c(O)nnc5-c5cc(C(C)C)c(O)cc5O)cc4C(F)(F)F)CC3)CC2)ccc1Nc1ncc2c(n1)N(S(C)(=O)=O)c1ccccc1C(=O)N2C [Compound 072, 2-((4-(4-(4-(4-(3-(2,4-dihydroxy-5-isopropylphenyl)-5-hydroxy-4H-1,2,4-triazol-4-yl)-2-(trifluoromethyl)benzyl)piperazine-1-carbonyl)piperidin-1-yl)-2-ethoxyphenyl)amino)-5-methyl-11-(methylsulfonyl)-5,11-dihydro-6H-benzo[e]pyrimido[5,4-b][1,4]diazepin-6-one]

pEC50 [1]: < 6.00
pIC50 (HSP90α protein): < 6.00
pEC50 [2]: < 6.00
SMILES: CCOc1cc(N2CCC(C(=O)NCc3ccc(-n4c(O)nnc4-c4cc(C)c(O)cc4O)cc3)CC2)ccc1Nc1ncc2c(n1)N(S(C)(=O)=O)c1ccccc1C(=O)N2C [Compound 073, N-(4-(3-(2,4-dihydroxy-5-methylphenyl)-5-hydroxy-4H-1,2,4-triazol-4-yl)benzyl)-1-(3-ethoxy-4-((5-methyl-11-(methylsulfonyl)-6-oxo-6,11-dihydro-5H-benzo[e]pyrimido[5,4-b][1,4]diazepin-2-yl)amino)phenyl)piperidine-4-carboxamide]

pEC50 [1]: 6.00 to 7.00
pIC50 (HSP90α protein): < 6.00
pEC50 [2]: < 6.00
SMILES: CCCc1cc(-c2nnc(O)n2-c2ccc(CNC(=O)C3CCN(c4ccc(Nc5ncc6c(n5)N(S(C)(=O)=O)c5ccccc5C(=O)N6C)c(OCC)c4)CC3)cc2)c(O)cc1O [Compound 074, N-(4-(3-(2,4-dihydroxy-5-propylphenyl)-5-hydroxy-4H-1,2,4-triazol-4-yl)benzyl)-1-(3-ethoxy-4-((5-methyl-11-(methylsulfonyl)-6-oxo-6,11-dihydro-5H-benzo[e]pyrimido[5,4-b][1,4]diazepin-2-yl)amino)phenyl)piperidine-4-carboxamide]

pEC50 [1]: 6.00 to 7.00
pIC50 (HSP90α protein): < 6.00
pEC50 [2]: < 6.00
SMILES: CCOc1cc(N2CCC(C(=O)N3CCC(Cc4ccc(CN(C)Cc5ccc(-n6c(C(=O)NCC(F)(F)F)nnc6-c6cc(C(C)C)c(O)cc6O)cc5)cc4)CC3)CC2)ccc1Nc1ncc2c(n1)N(S(C)(=O)=O)c1ccccc1C(=O)N2C [Compound 076, 5-(2,4-dihydroxy-5-isopropylphenyl)-4-(4-(((4-((1-(1-(3-ethoxy-4-((5-methyl-11-(methylsulfonyl)-6-oxo-6,11-dihydro-5H-benzo[e]pyrimido[5,4-b][1,4]diazepin-2-yl)amino)phenyl)piperidine-4-carbonyl)piperidin-4-yl)methyl)benzyl)(methyl)amino)methyl)phenyl)-N-(2,2,2-trifluoroethyl)-4H-1,2,4-triazole-3-carboxamide]

pEC50 [1]: 6.00 to 7.00
pIC50 (HSP90α protein): > 7.00
pEC50 [2]: < 6.00
SMILES: CCOc1cc(N2CCC(C(=O)NCC3CCN(C(=O)C4CCN(Cc5ccc(-n6c(O)nnc6-c6cc(CC)c(O)cc6O)cc5)CC4)CC3)CC2)ccc1Nc1ncc2c(n1)N(S(C)(=O)=O)c1ccccc1C(=O)N2C [Compound 079, 1-(3-ethoxy-4-((5-methyl-11-(methylsulfonyl)-6-oxo-6,11-dihydro-5H-benzo[e]pyrimido[5,4-b][1,4]diazepin-2-yl)amino)phenyl)-N-((1-(1-(4-(3-(5-ethyl-2,4-dihydroxyphenyl)-5-hydroxy-4H-1,2,4-triazol-4-yl)benzyl)piperidine-4-carbonyl)piperidin-4-yl)methyl)piperidine-4-carboxamide]

pEC50 [1]: > 7.00
pIC50 (HSP90α protein): > 7.00
pEC50 [2]: > 7.00
SMILES: CCOc1cc(N2CCC(C(=O)N3CCC(CN4CCN(Cc5ccc(-n6c(C(=O)NC7(C)CC7)nnc6-c6cc(CC)c(O)cc6O)cc5)CC4)CC3)CC2)ccc1Nc1ncc2c(n1)N(S(C)(=O)=O)c1ccccc1C(=O)N2C [Compound 083, 4-(4-((4-((1-(1-(3-ethoxy-4-((5-methyl-11-(methylsulfonyl)-6-oxo-6,11-dihydro-5H-benzo[e]pyrimido[5,4-b][1,4]diazepin-2-yl)amino)phenyl)piperidine-4-carbonyl)piperidin-4-yl)methyl)piperazin-1-yl)methyl)phenyl)-5-(5-ethyl-2,4-dihydroxyphenyl)-N-(1-methylcyclopropyl)-4H-1,2,4-triazole-3-carboxamide]
